Laboratory results published in ChEMBL document CHEMBL5223115, “A guanidinium group is an effective mimic of the tertiary carbocation formed by isopentenyl diphosphate isomerase” (Bioorg Med Chem Lett, 2022).

Assays:
[1] = target: T1, Isopentenyl-diphosphate Delta-isomerase (Escherichia coli (strain K12), UniProt Q46822); test: Inhibition of Escherichia coli IPP isomerase
T1 sequence (Q46822 whole entry): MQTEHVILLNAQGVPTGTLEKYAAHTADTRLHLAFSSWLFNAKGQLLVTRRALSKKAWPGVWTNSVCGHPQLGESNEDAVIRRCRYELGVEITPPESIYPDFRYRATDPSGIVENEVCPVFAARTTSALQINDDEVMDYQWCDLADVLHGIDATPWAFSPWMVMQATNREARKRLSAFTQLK

[2] = target: T1, Isopentenyl-diphosphate Delta-isomerase; test: Binding affinity to Escherichia coli IPP isomerase assessed as inhibition constant
[3] = Binding affinity to IPP isomerase (unknown origin) assessed as dissociation constant; design: species or system Homo sapiens
[4] = target: T1, Isopentenyl-diphosphate Delta-isomerase; test: Competitive inhibition of Escherichia coli IPP isomerase assessed as inhibition constant by Lineweaver-burk plot analysis

Row | Structure (SMILES) | IC50 [1] [µM] | Ki [2] [µM] | Kd [3] [µM] | Ki [4] [µM]
1 | NC(N)=NCP(=O)(O)CP(=O)(O)O | – | 0.12 | 1.2 | –
2 | CS(=O)(=O)NC(=O)CCNC(=N)N | 1200 | – | – | –
3 | N=C(N)NCCP(=O)(O)CP(=O)(O)O | 0.7 | 0.129 | – | 0.129
4 | CN(C)CCCP(=O)(O)CP(=O)(O)O | 33 | – | – | –

Second part, led by results:

Row | IC50 [1] [µM] | Structure (SMILES) | Ki [2] [µM] | Kd [3] [µM] | Ki [4] [µM]
5 | 670 | N=C(N)NCCC(=O)NO | – | – | –
6 | > 5000 | CN(C)CCCC(=O)NS(C)(=O)=O | – | – | –
